Like-named read-outs stand apart in the source and are kept apart here.
Key:
[1] = system: KP1004 KPC-2; test: Biapenem potentiation (MPC@1), strain KP1004 KPC-2; assay type: cell-based; conditions: minimum BLI concentration inhibiting growth with biapenem 1 μg/mL; tested up to 40 μg/mL
Procedure: (§1) Biapenem was present in the test medium at 1 μg/mL. […] Table 3 summarizes the BLI potency of biapenem potentiation (MPC@1) for two strains overexpressing class A (KPC) and class D (OXA-48) carbapenemases. Biapenem MIC for each strain is also shown.

[2] = system: KP1086 OXA-48; test: Biapenem potentiation (MPC@1), strain KP1086 OXA-48; assay type: cell-based; conditions: minimum BLI concentration inhibiting growth with biapenem 1 μg/mL; tested up to 40 μg/mL
Procedure: as §1

[3] = system: AB1053 OXA-72; test: Meropenem potentiation (MPC@8), strain AB1053 OXA-72; assay type: cell-based, Acinetobacter baumannii; conditions: minimum BLI concentration inhibiting growth with meropenem 8 μg/mL; tested up to 20 μg/mL
[4] = system: AB1054 OXA-23; test: Meropenem potentiation (MPC@8), strain AB1054 OXA-23; assay type: cell-based, Acinetobacter baumannii; conditions: minimum BLI concentration inhibiting growth with meropenem 8 μg/mL; tested up to 20 μg/mL
[5] = target: T1, purified class A, C and D enzymes (β-lactamases) (Acinetobacter baumannii, UniProt Q9L4P2); test: biochemical; assay type: biochemical; conditions: purified OXA-23; nitrocefin (NCF) as reporter substrate
T1 construct: rows headed: Ki (OXA-23, NCF), uM; other: purified OXA-23; nitrocefin (NCF) as reporter substrate
T1 sequence (Q9L4P2 whole entry): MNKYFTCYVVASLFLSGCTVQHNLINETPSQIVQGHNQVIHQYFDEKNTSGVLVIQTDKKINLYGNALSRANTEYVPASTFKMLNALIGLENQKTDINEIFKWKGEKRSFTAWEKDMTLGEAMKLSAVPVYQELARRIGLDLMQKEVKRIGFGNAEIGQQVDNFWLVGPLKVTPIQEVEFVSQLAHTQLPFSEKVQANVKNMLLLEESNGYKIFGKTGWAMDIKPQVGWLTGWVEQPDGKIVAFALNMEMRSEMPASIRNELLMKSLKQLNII

[6] = target: purified class A, C and D enzymes (β-lactamases) (Enterobacter cloacae, UniProt P05364); test: biochemical; assay type: biochemical
Sequence of purified class A, C and D enzymes (β-lactamases) (Enterobacter cloacae, UniProt P05364) (P05364 21-381): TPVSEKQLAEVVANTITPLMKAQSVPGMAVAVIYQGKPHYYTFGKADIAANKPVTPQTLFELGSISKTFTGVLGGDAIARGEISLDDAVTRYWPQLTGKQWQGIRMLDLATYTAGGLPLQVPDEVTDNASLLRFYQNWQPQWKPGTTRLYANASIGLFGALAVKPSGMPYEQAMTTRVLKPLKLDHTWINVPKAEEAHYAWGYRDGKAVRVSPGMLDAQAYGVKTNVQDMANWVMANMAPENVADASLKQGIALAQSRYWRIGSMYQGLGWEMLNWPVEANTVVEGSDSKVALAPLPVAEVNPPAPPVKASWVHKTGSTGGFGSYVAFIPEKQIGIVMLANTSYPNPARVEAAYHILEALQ

[7] = target: purified class A, C and D enzymes (β-lactamases) (Klebsiella pneumoniae, UniProt Q6XEC0); test: biochemical; assay type: biochemical; conditions: purified OXA-48; nitrocefin (NCF) as reporter substrate
[8] = target: purified class A, C and D enzymes (β-lactamases) (Klebsiella pneumoniae, UniProt Q9F663); test: biochemical; assay type: biochemical; conditions: purified KPC-2; nitrocefin (NCF) as reporter substrate
[9] = target: T2, purified class A, C and D enzymes (β-lactamases) (Pseudomonas aeruginosa, UniProt P24735); test: biochemical; assay type: biochemical
T2 construct: rows headed: Ki (Pa-AmpC, NCF), uM; other: purified Pa-AmpC; nitrocefin (NCF) as reporter substrate
T2 sequence (P24735 whole entry): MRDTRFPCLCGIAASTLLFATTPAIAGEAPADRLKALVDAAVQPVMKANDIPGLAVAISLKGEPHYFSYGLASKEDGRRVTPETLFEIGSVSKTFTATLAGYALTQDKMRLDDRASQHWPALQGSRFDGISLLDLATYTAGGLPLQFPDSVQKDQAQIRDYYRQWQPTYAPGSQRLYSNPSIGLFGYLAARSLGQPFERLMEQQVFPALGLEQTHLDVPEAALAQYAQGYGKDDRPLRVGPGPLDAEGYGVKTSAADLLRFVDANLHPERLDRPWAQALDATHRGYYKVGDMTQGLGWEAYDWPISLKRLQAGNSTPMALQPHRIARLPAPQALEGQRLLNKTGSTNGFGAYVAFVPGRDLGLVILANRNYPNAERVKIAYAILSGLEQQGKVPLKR

[10] = system: ECL1002; test: Aztreonam potentiation (MPC@4), strain ECL1002; conditions: minimum BLI concentration inhibiting growth with aztreonam 4 μg/mL; tested up to 40 μg/mL
[11] = system: ec308 SHV-5; test: Aztreonam potentiation (MPC@4), strain ec308 SHV-5; conditions: minimum BLI concentration inhibiting growth with aztreonam 4 μg/mL; tested up to 40 μg/mL
[12] = system: ec302 TEM-10; test: Aztreonam potentiation (MPC@4), strain ec302 TEM-10; conditions: minimum BLI concentration inhibiting growth with aztreonam 4 μg/mL; tested up to 40 μg/mL
[13] = system: KP1004 KPC-2; test: Aztreonam potentiation (MPC@4), strain KP1004 KPC-2; conditions: minimum BLI concentration inhibiting growth with aztreonam 4 μg/mL; tested up to 40 μg/mL
[14] = system: EC1010 CMY-6; test: Aztreonam potentiation (MPC@4), strain EC1010 CMY-6; conditions: minimum BLI concentration inhibiting growth with aztreonam 4 μg/mL; tested up to 40 μg/mL
[15] = system: KP1010 SHV-12; test: Aztreonam potentiation (MPC@4), strain KP1010 SHV-12; conditions: minimum BLI concentration inhibiting growth with aztreonam 4 μg/mL; tested up to 40 μg/mL
[16] = system: KP1009 CTX-M-15; test: Aztreonam potentiation (MPC@4), strain KP1009 CTX-M-15; conditions: minimum BLI concentration inhibiting growth with aztreonam 4 μg/mL; tested up to 40 μg/mL
[17] = system: KP1005 CTX-M-14; test: Tigemonam potentiation (MPC@4), strain KP1005 CTX-M-14; conditions: minimum BLI concentration inhibiting growth with tigemonam 4 μg/mL; tested up to 40 μg/mL

Compound	BPM MPC1 KP1004 KPC-2 [1]	BPM MPC1 OXA-48 KP1086 [2]	MPM MPC8 AB1053 OXA-72 [3]	MPM MPC8 AB1054 OXA-23 [4]	Ki [5] [nM]	Ki (P99, NCF), uM [6]	Ki (OXA-48, NCF), uM [7]	Ki (KPC-2, NCF), uM [8]	Ki [9] [nM]	AZT MPC4 ECL1002 [10]	AZT MPC4 SHV-5 ec308 [11]	AZT MPC4 TEM-10 ec302 [12]	AZT MPC4 KPC-2 KP1004 [13]	AZT MPC4 CMY-6 EC1010 [14]	AZT MPC4 SHV-12 KP1010 [15]	AZT MPC4 CTX-M-15 KP1009 [16]	TIG MPC4 CTX-M-14 KP1005 [17]	Ki (P99, NCF), uM ([6]; purified P99, nitrocefin (NCF) as reporter substrate)	Ki ([9]; purified Pa-AmpC, nitrocefin (NCF) as reporter substrate, read-out: Ki (Pa-AmpC, NCF)) [nM]
O=C([O-])c1c(OCC#CCO)ccc2c1O[B-](O)(O)CC2.[Na+].[Na+] [Compound 30, Disodium; 4,4-dihydroxy-8-(4-hydroxybut-2-ynoxy)-5-oxa-4-boranuidabicyclo[4.4.0]deca-1(6),7,9-triene-7-carboxylate]	X (X = MPC@1 ≤ 5 μg/mL)	Y (Y = 5 μg/mL < MPC@1 ≤ 20 μg/mL)	X (X = MPC@1 ≤ 5 μg/mL)	X (X = MPC@1 ≤ 5 μg/mL)	< 100	X (key: X = Ki ≤ 0.1 μM; Y = 0.1 μM < Ki ≤ 1 μM; Z = Ki > 1 μM)	X (X = Ki ≤ 0.1 μM)	X (X = Ki ≤ 0.1 μM)	< 100	X (X = MPC@4 ≤ 5 μg/mL)	X (X = MPC@4 ≤ 5 μg/mL)	X (X = MPC@4 ≤ 5 μg/mL)	X (X = MPC@4 ≤ 5 μg/mL)	X (X = MPC@4 ≤ 5 μg/mL)	X (X = MPC@4 ≤ 5 μg/mL)	X (X = MPC@4 ≤ 5 μg/mL)	Y (Y = 5 μg/mL < MPC@4 ≤ 20 μg/mL)	–	–
COCC#CCOc1ccc2c(c1C(=O)[O-])O[B-](O)(O)CC2.[Na+].[Na+] [Compound 31, Disodium; 4,4-dihydroxy-8-(4-methoxybut-2-ynoxy)-5-oxa-4-boranuidabicyclo[4.4.0]deca-1(6),7,9-triene-7-carboxylate]	X (X = MPC@1 ≤ 5 μg/mL)	X (X = MPC@1 ≤ 5 μg/mL)	X (X = MPC@1 ≤ 5 μg/mL)	X (X = MPC@1 ≤ 5 μg/mL)	< 100	X (key: X = Ki ≤ 0.1 μM; Y = 0.1 μM < Ki ≤ 1 μM; Z = Ki > 1 μM)	X (X = Ki ≤ 0.1 μM)	X (X = Ki ≤ 0.1 μM)	< 100	X (X = MPC@4 ≤ 5 μg/mL)	X (X = MPC@4 ≤ 5 μg/mL)	Y (Y = 5 μg/mL < MPC@4 ≤ 20 μg/mL)	X (X = MPC@4 ≤ 5 μg/mL)	X (X = MPC@4 ≤ 5 μg/mL)	X (X = MPC@4 ≤ 5 μg/mL)	Y (Y = 5 μg/mL < MPC@4 ≤ 20 μg/mL)	Y (Y = 5 μg/mL < MPC@4 ≤ 20 μg/mL)	–	–
NCC#CCOc1ccc2c(c1C(=O)[O-])O[B-](O)(O)CC2.[Na+].[Na+] [Compound 32, Disodium; 8-(4-aminobut-2-ynoxy)-4,4-dihydroxy-5-oxa-4-boranuidabicyclo[4.4.0]deca-1(6),7,9-triene-7-carboxylate]	X (X = MPC@1 ≤ 5 μg/mL)	X (X = MPC@1 ≤ 5 μg/mL)	X (X = MPC@1 ≤ 5 μg/mL)	X (X = MPC@1 ≤ 5 μg/mL)	< 100	X (key: X = Ki ≤ 0.1 μM; Y = 0.1 μM < Ki ≤ 1 μM; Z = Ki > 1 μM)	X (X = Ki ≤ 0.1 μM)	X (X = Ki ≤ 0.1 μM)	< 100	X (X = MPC@4 ≤ 5 μg/mL)	Y (Y = 5 μg/mL < MPC@4 ≤ 20 μg/mL)	X (X = MPC@4 ≤ 5 μg/mL)	X (X = MPC@4 ≤ 5 μg/mL)	X (X = MPC@4 ≤ 5 μg/mL)	X (X = MPC@4 ≤ 5 μg/mL)	X (X = MPC@4 ≤ 5 μg/mL)	Y (Y = 5 μg/mL < MPC@4 ≤ 20 μg/mL)	–	–
CSc1ccc2c(c1C(=O)[O-])O[B-](O)(O)CC2.[Na+].[Na+] [Compound 36, Disodium; 4,4-dihydroxy-8-methylsulfanyl-5-oxa-4-boranuidabicyclo[4.4.0]deca-1(6),7,9-triene-7-carboxylate]	X (X = MPC@1 ≤ 5 μg/mL)	X (X = MPC@1 ≤ 5 μg/mL)	Y (Y = 5 μg/mL < MPC@1 ≤ 20 μg/mL)	X (X = MPC@1 ≤ 5 μg/mL)	< 100	X (key: X = Ki ≤ 0.1 μM; Y = 0.1 μM < Ki ≤ 1 μM; Z = Ki > 1 μM)	X (X = Ki ≤ 0.1 μM)	X (X = Ki ≤ 0.1 μM)	< 100	X (X = MPC@4 ≤ 5 μg/mL)	X (X = MPC@4 ≤ 5 μg/mL)	X (X = MPC@4 ≤ 5 μg/mL)	X (X = MPC@4 ≤ 5 μg/mL)	X (X = MPC@4 ≤ 5 μg/mL)	X (X = MPC@4 ≤ 5 μg/mL)	Y (Y = 5 μg/mL < MPC@4 ≤ 20 μg/mL)	Y (Y = 5 μg/mL < MPC@4 ≤ 20 μg/mL)	–	–
O=C([O-])c1cc(F)cc2c1O[B-](O)(O)CC2.[Na+].[Na+] [Compound 37, Disodium; 9-fluoro-4,4-dihydroxy-5-oxa-4-boranuidabicyclo[4.4.0]deca-1(6),7,9-triene-7-carboxylate]	X (X = MPC@1 ≤ 5 μg/mL)	X (X = MPC@1 ≤ 5 μg/mL)	Z (Z = MPC@1 > 20 μg/mL)	Z (Z = MPC@1 > 20 μg/mL)	< 100	X (key: X = Ki ≤ 0.1 μM; Y = 0.1 μM < Ki ≤ 1 μM; Z = Ki > 1 μM)	X (X = Ki ≤ 0.1 μM)	X (X = Ki ≤ 0.1 μM)	< 100	Y (Y = 5 μg/mL < MPC@4 ≤ 20 μg/mL)	Y (Y = 5 μg/mL < MPC@4 ≤ 20 μg/mL)	Y (Y = 5 μg/mL < MPC@4 ≤ 20 μg/mL)	X (X = MPC@4 ≤ 5 μg/mL)	X (X = MPC@4 ≤ 5 μg/mL)	X (X = MPC@4 ≤ 5 μg/mL)	Y (Y = 5 μg/mL < MPC@4 ≤ 20 μg/mL)	Z (Z = MPC@4 > 20 μg/mL)	–	–
O=C([O-])c1ccnc2c1O[B-](O)(O)CC2.[Na+].[Na+] [Compound 38, Disodium; 8,8-dihydroxy-7-oxa-2-aza-8-boranuidabicyclo[4.4.0]deca-1,3,5-triene-5-carboxylate]	X (X = MPC@1 ≤ 5 μg/mL)	Y (Y = 5 μg/mL < MPC@1 ≤ 20 μg/mL)	Z (Z = MPC@1 > 20 μg/mL)	Z (Z = MPC@1 > 20 μg/mL)	> 1000	Z (key: X = Ki ≤ 0.1 μM; Y = 0.1 μM < Ki ≤ 1 μM; Z = Ki > 1 μM)	X (X = Ki ≤ 0.1 μM)	Y (Y = 0.1 μM < Ki ≤ 1 μM)	> 1000	Z (Z = MPC@4 > 20 μg/mL)	Z (Z = MPC@4 > 20 μg/mL)	Z (Z = MPC@4 > 20 μg/mL)	Y (Y = 5 μg/mL < MPC@4 ≤ 20 μg/mL)	Y (Y = 5 μg/mL < MPC@4 ≤ 20 μg/mL)	Z (Z = MPC@4 > 20 μg/mL)	Z (Z = MPC@4 > 20 μg/mL)	Z (Z = MPC@4 > 20 μg/mL)	–	–
O=C(O)c1c(OC(CO)CO)ccc2c1OB(O)CC2 [Compound 44, 2-hydroxy-7-[2-hydroxy-1-(hydroxymethyl)ethoxy]-3,4-dihydro-1,2-benzoxaborinine-8-carboxylic acid]	X (X = MPC@1 ≤ 5 μg/mL)	X (X = MPC@1 ≤ 5 μg/mL)	X (X = MPC@1 ≤ 5 μg/mL)	Y (Y = 5 μg/mL < MPC@1 ≤ 20 μg/mL)	< 100	–	X (X = Ki ≤ 0.1 μM)	X (X = Ki ≤ 0.1 μM)	–	Y (Y = 5 μg/mL < MPC@4 ≤ 20 μg/mL)	Y (Y = 5 μg/mL < MPC@4 ≤ 20 μg/mL)	Y (Y = 5 μg/mL < MPC@4 ≤ 20 μg/mL)	X (X = MPC@4 ≤ 5 μg/mL)	X (X = MPC@4 ≤ 5 μg/mL)	X (X = MPC@4 ≤ 5 μg/mL)	Y (Y = 5 μg/mL < MPC@4 ≤ 20 μg/mL)	Z (Z = MPC@4 > 20 μg/mL)	X (X = Ki ≤ 0.1 μM)	< 100
